From patent US8173689B2 (Novartis AG, priority 2006, dated 2012)
Where two headings read alike, the source gives them in different places.

What was measured:
[1] = target: T1, kinase domain of PDGFRβ (Homo sapiens, UniProt P09619); experiment: Inhibition of PDGFRb kinase signaling in an in vitro biochemical assay (alphascreen); conditions: tested at about 1 μM, read-out: PDGFRβ percent inhibition
T1 construct: The kinase domain of PDGFRβ was assayed in 50 mM Hepes; purchased Invitrogen P3082

[2] = target: T2, full-length human CSF-1R receptor (Homo sapiens, UniProt P07333); experiment: In vitro inhibition of CSF-1R receptor tyrosine phosphorylation in transfected HEK293H cells stimulated with MCSF; type: cell-based; conditions: HEK293-H, tested at about 1 μM, read-out: pCSF1R percent inhibition
T2 construct: transfected with the full-length human CSF-1R receptor cloned in house; expressed in transfected cells; host or cells: HEK293H (Invitrogen Cat. #11631017)
T2 sequence (P07333 20-972): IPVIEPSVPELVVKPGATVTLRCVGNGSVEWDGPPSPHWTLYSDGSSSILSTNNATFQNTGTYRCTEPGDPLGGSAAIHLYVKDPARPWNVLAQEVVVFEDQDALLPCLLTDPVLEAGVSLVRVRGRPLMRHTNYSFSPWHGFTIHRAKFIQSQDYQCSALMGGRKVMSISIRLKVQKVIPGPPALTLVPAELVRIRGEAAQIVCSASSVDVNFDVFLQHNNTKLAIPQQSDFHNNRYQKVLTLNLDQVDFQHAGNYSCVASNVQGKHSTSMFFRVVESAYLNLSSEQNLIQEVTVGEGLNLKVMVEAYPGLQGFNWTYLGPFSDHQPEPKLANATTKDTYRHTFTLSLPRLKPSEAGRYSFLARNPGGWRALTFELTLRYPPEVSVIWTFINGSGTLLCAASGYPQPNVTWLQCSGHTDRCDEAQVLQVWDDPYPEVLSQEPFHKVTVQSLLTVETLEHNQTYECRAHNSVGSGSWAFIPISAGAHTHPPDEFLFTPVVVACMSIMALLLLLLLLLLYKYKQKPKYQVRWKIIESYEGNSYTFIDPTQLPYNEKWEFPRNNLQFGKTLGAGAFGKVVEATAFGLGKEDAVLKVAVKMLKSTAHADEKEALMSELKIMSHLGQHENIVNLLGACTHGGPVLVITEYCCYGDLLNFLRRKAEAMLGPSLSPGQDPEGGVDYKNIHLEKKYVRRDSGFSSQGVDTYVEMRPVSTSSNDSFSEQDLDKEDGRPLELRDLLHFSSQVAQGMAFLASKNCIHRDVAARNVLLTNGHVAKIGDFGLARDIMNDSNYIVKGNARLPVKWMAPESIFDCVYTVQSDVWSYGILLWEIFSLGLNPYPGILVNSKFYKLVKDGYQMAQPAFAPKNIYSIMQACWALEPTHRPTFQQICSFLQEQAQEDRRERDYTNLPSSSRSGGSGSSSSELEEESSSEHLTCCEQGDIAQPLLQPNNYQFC
Experimental: The lysate was then transferred to total CSF-1R antibody coated 96-well plates that had already been blocked with 3% Blocker A from Mesoscale discovery (MSD) for 2 hours and washed afterwards. Lysates were incubated overnight at 4° C. and the plates were then washed 4× with MSD Tris Wash Buffer. […] The plates were read on the Sector 6000 instrument (MSD). Raw data was imported in Abase and EC50s calculated with XL-fit data analysis software.

[3] = target: T3, kinase domain of cKIT (Homo sapiens, UniProt P10721); experiment: Inhibition of cKIT kinase signaling in an in vitro biochemical assay (alphascreen); conditions: tested at about 1 μM, read-out: cKit percent inhibition
T3 construct: The kinase domain of cKIT was assayed in 50 mM Hepes; purchased Upstate 14-559
T3 sequence (P10721 589-937 limits assumed): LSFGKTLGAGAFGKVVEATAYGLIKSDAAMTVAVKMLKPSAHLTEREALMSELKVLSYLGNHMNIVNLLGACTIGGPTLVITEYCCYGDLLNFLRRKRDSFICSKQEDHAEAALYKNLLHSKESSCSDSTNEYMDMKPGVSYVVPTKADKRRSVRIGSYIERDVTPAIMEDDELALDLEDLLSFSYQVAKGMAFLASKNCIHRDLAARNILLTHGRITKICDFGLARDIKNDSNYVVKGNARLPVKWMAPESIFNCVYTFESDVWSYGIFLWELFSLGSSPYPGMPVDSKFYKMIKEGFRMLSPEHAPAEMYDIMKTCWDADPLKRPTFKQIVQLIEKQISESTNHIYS

[4] = target: T4, cytoplasmic domain of the human CSF-1R (Homo sapiens, UniProt P07333); experiment: In vitro kinase assay for colony stimulating factor-1 receptor (AlphaScreen); type: biochemical; conditions: tested at about 1 μM, read-out: CSF-1R percent inhibition
T4 construct: Recombinant protein corresponding to the cytoplasmic domain of the human CSF-1R; purchased Invitrogen Corporation, Carlsbad, Calif; PV3249
T4 sequence (P07333 539-972 limits assumed): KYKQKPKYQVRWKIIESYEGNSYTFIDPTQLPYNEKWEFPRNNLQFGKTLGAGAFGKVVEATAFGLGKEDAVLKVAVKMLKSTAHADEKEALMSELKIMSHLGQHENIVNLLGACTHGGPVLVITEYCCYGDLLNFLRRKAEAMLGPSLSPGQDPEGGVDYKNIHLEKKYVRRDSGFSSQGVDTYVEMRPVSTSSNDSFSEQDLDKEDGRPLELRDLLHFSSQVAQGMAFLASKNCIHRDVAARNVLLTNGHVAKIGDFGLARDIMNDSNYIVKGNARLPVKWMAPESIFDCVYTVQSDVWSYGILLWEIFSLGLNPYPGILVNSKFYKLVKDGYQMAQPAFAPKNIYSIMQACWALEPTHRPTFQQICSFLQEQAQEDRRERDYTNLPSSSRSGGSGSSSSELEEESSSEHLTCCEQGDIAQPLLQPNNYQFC
Method in brief: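 AlphaScreen read-out (PT66 anti-pTyr acceptor beads, streptavidin donor beads, overnight incubation) measured phosphorylated peptide product. The product was formed by the human CSF-1R cytoplasmic domain at 4 nM with 1 µM ATP in Mg2+/Mn2+ HEPES buffer, pH 7.5. Compound dilution series were 3-fold, starting at 25 µM.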

[5] = test system: MNFS60 (murine AML cells); experiment: Cell viability assay in MCSF dependent MNFS60 cells (Cell Titer Glo); type: cell-based; conditions: Mus musculus, tested at about 1 μM, read-out: M-NFS-60 CP percent inhibition
Method in brief: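 EC50 values reflect MCSF-driven (10 ng/ml final) proliferation over 72 hrs at 37° C., read by CellTiter-Glo. Each condition was run in triplicate.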

T1 sequence (P09619 600-962 limits assumed): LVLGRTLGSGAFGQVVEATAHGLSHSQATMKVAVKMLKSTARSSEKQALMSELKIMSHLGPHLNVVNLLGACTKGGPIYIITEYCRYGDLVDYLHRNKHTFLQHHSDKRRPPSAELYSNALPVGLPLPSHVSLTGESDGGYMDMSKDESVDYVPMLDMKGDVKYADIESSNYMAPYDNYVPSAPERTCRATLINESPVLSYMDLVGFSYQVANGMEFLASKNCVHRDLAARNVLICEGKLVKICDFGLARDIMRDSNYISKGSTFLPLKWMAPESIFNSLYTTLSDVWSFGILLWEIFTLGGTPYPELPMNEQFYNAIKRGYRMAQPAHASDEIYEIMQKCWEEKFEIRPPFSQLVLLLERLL

inhibition at 1 µM ([1]; compounds of Table 3) [%]	inhibition at 1 µM ([2]; compounds of Table 3) [%]	inhibition at 1 µM ([3]; compounds of Table 3) [%]	inhibition at 1 µM ([4]; compounds of Table 3) [%]	inhibition at 1 µM [1] [%]	inhibition at 1 µM ([2]; HEK293H cells) [%]	inhibition at 1 µM [3] [%]	inhibition at 1 µM [4] [%]	Structure (SMILES)	inhibition at 1 µM ([5]; compounds of Table 3) [%]	inhibition at 1 µM ([5]; MCSF dependent MNFS60 cells) [%]
0	82	22	100					CNC(=O)c1cc(Oc2ccc3nc(NC4CCCC(O)C4)sc3c2)ccn1 (stereo not drawn) [Example 293, 4-(2-(3-hydroxycyclohexylamino)benzo[d]thiazol-6-yloxy)-N-methylpicolinamide]	67	
9	90	0	98					CNC(=O)c1cc(Oc2ccc3nc(N[C@@H]4CCCC[C@H]4N)sc3c2)ccn1 [Example 297, 4-(2-((1R,2R)-2-aminocyclohexylamino)benzo[d]thiazol-6-yloxy)-N-methylpicolinamide]	42	
57	95	32	100					CNC(=O)c1cc(Oc2ccc3nc(N[C@@H]4CCCC[C@H]4CO)sc3c2)ccn1 [Example 299, 4-(2-((1R,2R)-2-(hydroxymethyl)cyclohexyl-amino)benzo[d]thiazol-6-yloxy)-N-methylpicolinamide]	94	
				27	81	51	100	CNC(=O)c1cc(Oc2ccc3nc(NCC4CCCN(S(C)(=O)=O)C4)sc3c2)ccn1 (stereo not drawn) [Example 308, N-methyl-4-(2-((1-(methylsulfonyl)piperidin-3-yl)methylamino)benzo[d]thiazol-6-yloxy)picolinamide]		54
				13	78	47	100	CNC(=O)c1cc(Oc2ccc3nc(N[C@H]4C[C@H]4c4ccccc4)sc3c2)ccn1 [Example 318, N-methyl-4-(2-((1S,2S)-2-phenylcyclopropylamino)benzo[d]thiazol-6-yloxy)picolinamide]		24
				7	81	44	65	CNC(=O)c1cc(Oc2ccc3nc(N[C@@H]4CCCC[C@H]4NS(C)(=O)=O)sc3c2)ccn1 [Example 326, N-methyl-4-(2-((1R,2R)-2-(methylsulfonamido)cyclo-hexylamino)benzo[d]thiazol-6-yloxy)picolinamide]		33
				17	92	59	100	CNC(=O)c1cc(Oc2ccc3nc(N[C@@H]4CCc5ccccc5C4)sc3c2)ccn1 [Example 329, (R)-N-methyl-4-(2-(1,2,3,4-tetrahydronaphthalen-2-ylamino)benzo[d]thiazol-6-yloxy)picolinamide]		84
				8	50	41	99	CNC(=O)c1cc(Oc2ccc3nc(N[C@H]4CCCC[C@@H]4NS(C)(=O)=O)sc3c2)ccn1 [Example 330, N-mehtyl-4-(2-((1S,2S)-2-(methylsulfonamido)cyclo-hexylamino)benzo[d]thiazol-6-yloxy)picolinamide]		58
				10	79	41	100	CNC(=O)c1cc(Oc2ccc3nc(N[C@H]4CCCN(S(C)(=O)=O)C4)sc3c2)ccn1 [Example 331, (S)-N-methyl-4-(2-(1-(methylsulfonyl)piperidin-3-ylamino)benzo[d]thiazol-6-yloxy)picolinamide]		68
				15	71	20	100	CNC(=O)c1cc(Oc2ccc3nc(N[C@H]4CCCN(C(=O)C(C)C)C4)sc3c2)ccn1 [Example 334, (S)-4-(2-(1-isobutyrylpiperidin-3-ylamino)benzo[d]thiazol-6-yloxy)-N-methylpicolinamide]		67

More lines, now with the values behind:

Structure (SMILES)	inhibition at 1 µM ([1]; compounds of Table 3) [%]	inhibition at 1 µM ([2]; compounds of Table 3) [%]	inhibition at 1 µM ([3]; compounds of Table 3) [%]	inhibition at 1 µM ([4]; compounds of Table 3) [%]	inhibition at 1 µM [1] [%]	inhibition at 1 µM ([2]; HEK293H cells) [%]	inhibition at 1 µM [3] [%]	inhibition at 1 µM [4] [%]	inhibition at 1 µM ([5]; compounds of Table 3) [%]	inhibition at 1 µM ([5]; MCSF dependent MNFS60 cells) [%]
CCCn1cc(-c2cc(Oc3ccc4nc(N[C@@H]5CCCC[C@H]5O)sc4c3)ccn2)cn1 [Example 281, (1R,2R)-2-(6-(2-(1-propyl-1H-pyrazol-4-yl)pyridin-4-yloxy)benzo[d]thiazol-2-ylamino)cyclohexanol]	36	96	22	100					100	
CN(C)c1ncc(-c2cc(Oc3ccc4nc(N[C@@H]5CCCC[C@H]5O)sc4c3)ccn2)cn1 [Example 286, (1R,2R)-2-(6-(2-(2-(dimethylamino)pyrimidin-5-yl)pyridin-4-yloxy)benzo[d]thiazol-2-ylamino)cyclohexanol]	0	94	23	100					71	
CNC(=O)c1cc(Oc2ccc3nc(NCCc4ccncc4)sc3c2)ccn1 [Example 316, N-methyl-4-(2-(2-(pyridin-4-yl)ethylamino)benzo[d]thiazol-6-yloxy)picolinamide]					12	98	8	99		41
CNC(=O)c1cc(Oc2ccc3nc(NCCc4ccccc4OC)sc3c2)ccn1 [Example 317, 4-(2-(2-methoxyphenylethylamino)benzo[d]thiazol-6-yloxy)-N-methylpicolinamide]					12	95	70	100		50
CNC(=O)c1cc(Oc2ccc3nc(NCCc4ccccc4Cl)sc3c2)ccn1 [Example 319, 4-(2-(2-chlorophenylethylamino)benzo[d]thiazol-6-yloxy)-N-methylpicolinamide]					24	91	93	100		61
CNC(=O)c1cc(Oc2ccc3nc(N[C@H]4c5ccccc5C[C@H]4O)sc3c2)ccn1 [Example 321, 4-(2-((1S,2R)-2-hydroxy-2,3-dihydro-1H-inden-1-ylamino)benzo[d]thiazol-6-yloxy)-N-methylpicolinamide]					41	97	52	100		82
CNC(=O)c1cc(Oc2ccc3nc(N[C@@H]4c5ccccc5C[C@@H]4O)sc3c2)ccn1 [Example 323, 4-(2-((1R,2S)-2-hydroxy-2,3-dihydro-1H-inden-1-ylamino)benzo[d]thiazol-6-yloxy)-N-methylpicolinamide]					24	98	25	100		100
CNC(=O)c1cc(Oc2ccc3nc(N[C@@H](C)c4ccccc4OC)sc3c2)ccn1 [Example 328, (S)-4-(2-(1-(2-methoxyphenyl)ethylamino)benzo[d]thiazol-6-yloxy)-N-methylpicolinamide]					0	80	14	100		63
